Data set [1] has as its system Culex pipiens. In words: Biological activity on Culex pipiens larvae (Diptera). The data set is classed as in vivo. As to conditions: for mortality at 0.2 ppm: 24 h, 0,2 ppm. The procedure:
(4) Biological activity on Culex pipiens (Diptera)
Into glasses containing an aqueous dispersion of the products under examination (see Tables 4 and 5) there were introduced mosquito larvae of third and fourth age.
The mortality percentage of the larvae (glasses containing pure water=0) was determined after 24 hours from treatment.

Data set [2] relates to Tetranychus urticae. In words: Biological activity on adults of Tetranychus urticae (Acari). As to conditions: for mortality at 0.0005 %: 24 h, 0,005%o. The data set is classed as in vivo. The procedure: (5) Biological activity on adults of Tetranychus urticae (Acari)
Discs of bean leaves were infested with adult acari and then sprinkled with an aqueous dispersion of the products under examination (see Tables 4 and 5).
The mortality percentage was determined after 24 hours from treatment (untreated leaf discs, mortality=0).

In data set [3] the test system is orthoptera, lepidoptera, coleoptera, diptera, nematoda and acari. Briefly: Comparison of the insecticidal, acaricidal and nematocidal activities. The data set is classed as in vivo. As to conditions: M 8174 vs M 8172 (Table 4); Tables 4 and 5. An excerpt:
Of this material (M 8172) we have estimated the effects on various arthropods at decreasing doses, together with effects shown by a representative compound of the class described by us in this invention (M 8174).

The test system of data set [4] is Blatta orientalis. Briefly: Biological activity on Blatta orientalis (Ortoptera). The data set is classed as in vivo. As to conditions: for % ge of activity, Blatta o.: Table 4, 2880 min. A digest of the protocol:
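Ten neanides aged 80-100 days were exposed to glass crystallizer surfaces coated with acetone solution of compound for 24 h, then moved to untreated containers and fed. Mortality (untreated = 0) was scored 48 h after treatment began.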

The subject of data set [5] is Hilemyia brassicae. Briefly: Biological activity on Hilemyia brassicae (Diptera). The data set is classed as in vivo. As to conditions: Table 4. The procedure:
(9) Biological activity on Hilemyia brassicae (Diptera)
Samples of soil were treated by uniform mixing with an aqueous dispersion of the products under examination (see Tables 4 and 5). The soil was then divided into two pots and in each of these 4 small radish plants were transplanted. The plants were subsequently infected by putting to the soil 50 Diptera eggs in the middle of the surface of the pots.
The results were recorded 10 days after treatment by extracting the plants from the soil and by counting the number of larvae present on the roots and on the surrounding soil.
The insecticidal activity was expressed as percentage of reduction of the infestation in comparison with the witness plants (plants transplanted into untreated soil, activity=0).

For data set [6], the system named is Meloidogyne icognita. Briefly: Biological activity on Meloidogyne icognita (Nematoda). The data set is classed as in vivo. As to conditions: 20 ppm; Table 4. The procedure: (8) Biological activity on Meloidogyne icognita (Nematoda)
A 1:1 mixture of field soil and sand, infested with newborne larvae and eggs of Nematoda, were treated, by uniform admixing, with an aqueous dispersion of the products under examination (see Tables 4 and 5). The soil was then distributed into plastic pots, and after 5 days in each pot there were planted 5 small tomato plants about 20 cm high.
The results were recorded 21 days after the transplanting.
The nematocidal activity was expressed as the percentage reduction of infestation with respect to the witness (small plants transplanted into a non-treated soil, activity=0).

Data set [7] has as its system Leptinotarsa decemlineata. Briefly: Biological activity on Leptinotarsa decemlineata (Coleoptera). The data set is classed as in vivo. As to conditions: for mortality at 0.01 %: 48 h, 0,1%o. The procedure:
(3) Biological activity on Leptinotarsa decemlineata (Coleoptera)
Small potato plants grown in pots were infested with 4-day old larvae, and were then sprinkled with an aqueous dispersion of the products under examination (see Tables 4 and 5).
The mortality percentage (untreated small plants=0) was determined after 48 hours from treatment.

The subject of data set [8] is Pieris brassicae. In words: Biological activity on Pieris brassicae (Lepidoptera). The data set is classed as in vivo. As to conditions: 48 h, Table 5, read-out: Activity (mortality class), Pieris B.; for mortality at 0.001 %: 0.01%o. The procedure: (2) Biological activity on Pieris brassicae (Lepidotera)
Cut-off cauliflower leaves were sprinkled with an aqueous dispersion of the products under examination (see TABLE 5).
After drying, the leaves were infested with 5-day old larvae. The percentage of mortality of the larvae (untreated leaves=0) was determined after 48 hours from treatment.

Data set [9] deals with Spodoptera littoralis. Briefly: Biological activity on Spodoptera littoralis (Lepidoptera). The data set is classed as in vivo. As to conditions: for mortality at 0.01 %: 48 h, 0,1%o. The procedure: (7) Biological activity on Spodoptera littoralis (Lepidoptera)
Cut tobacco leaves were sprinkled with an aqueous dispersion of the products under examination (see Tables 4 and 5).
After drying, the leaves were infested with 5-day old larvae.
The percentage of mortality of the larvae was determined after 48 hours from treatment (untreated leaves, mortality=0).

Data set [10] is described as follows: Toxicity on albino rats by oral administration. As to conditions: rat, in vivo.
Data set [11] has as its system warm-blooded animals. In words: Toxicity toward warm-blooded animals / mammals. The data set is classed as in vivo.
Data set [12] relates to Locusta M. In words: Activity on Locusta M. As to conditions: in vivo.
Where [13] appears, read: 24 h, 0,02 ppm, Table 4, read-out: % ge of activity, Culex p.
Where [14] appears, read: Table 4, read-out: % ge of activity, Culex p.
The mark [15] stands for this setting: 24 h, 0,01%o, Table 4, read-out: % ge of activity, Tetranycus u. (ad.).
The mark [16] stands for this setting: Table 4, read-out: % ge of activity, Tetranycus u. (ad.).
Where [17] appears, read: Blatta orientalis, 48 h, 0,01 g/m^2, Table 5, read-out: Activity (mortality class), Blatta O.
Setting [18] is: Table 4, read-out: % ge of activity, Leptinotarsa d.
Where [19] appears, read: 48 h, 0,05%o, Table 4, read-out: % ge of activity, Leptinotarsa d.
Where [20] appears, read: Table 4, read-out: % ge of activity, Spodoptera l.
Setting [21] is: 48 h, 0,05%o, Table 4, read-out: % ge of activity, Spodoptera l.

This is an account of results in patent US4400517A, “Phosphoric esters derived from 1,2,4-triazole having an insecticidal, nematocidal and acaricidal action, and their preparation” (priority 1976, dated 1983).

Like-named read-outs stand apart in the source and are kept apart here.

In the case of `CCOP(=S)(OCC)Oc1nc(C=C(Cl)Cl)nn1C` [M 8174], the mortality at 0.02 ppm is 100% in data set [1] (setting [13]) and 100% in data set [1] (24 h, 0.02 ppm, Table 5, read-out: Activity (mortality class), Culex P. (larvae)). Besides, in data set [1] (setting [14]), the mortality at 0.2 ppm stood at 100%. In addition, in [1] (24 h, 2 ppm, Table 5, read-out: Activity (mortality class), Culex P. (larvae)), the mortality at 2 ppm was 100%. Moreover, the mortality at 0.001 % in data set [2] (setting [15]) stood at 100%; in data set [2] (24 h, 0.01%o, Table 5, read-out: Activity (mortality class), Tetranychus U. (adults)), 100%; in data set [8], 100%. Further, the mortality at 0.1 % stood at 100% in [2] (24 h, 1%o, Table 5, read-out: Activity (mortality class), Tetranychus U. (adults)); 100% in data set [7] (48 h, 1%o, Table 5, read-out: Activity (mortality class), Leptinotarsa D.); 100% in data set [8] (1%o); 100% in data set [9] (48 h, 1%o, Table 5, read-out: Activity (mortality class), Spodoptera L.). Also, in [2] (setting [16]), the mortality at 0.0005 % is 100%. Also, the activity in words entry in data set [3] was “significantly better activity”. For the same compound, the “% ge of activity, Blatta o.” value in [4] (0,01 g/m^2) and in data set [4] (0,1 g/m^2) was 100% throughout. In addition, the mortality at 0.01 g/m2 in data set [4] (setting [17]) was 100%. For the same compound, the mortality at 1 g/m2 in data set [4] (Blatta orientalis, 48 h, 1 g/m^2, Table 5, read-out: Activity (mortality class), Blatta O.) was 100%. For the same compound, the “% ge of activity, Hylemyia b.” value in data set [5] (2 ppm) and in data set [5] (10 ppm) was 100% each time. For the same compound, the “% ge of activity, Meloidogyne i.” value in [6] came out at 100%. In addition, the mortality at 0.01 % in [7] (setting [18]) and in data set [9] (setting [20]) was 100% throughout. In addition, the mortality at 0.005 % came to 100% in data set [7] (setting [19]); 100% in data set [7] (48 h, 0.05%o, Table 5, read-out: Activity (mortality class), Leptinotarsa D.); 90% in data set [9] (setting [21]); 100% in data set [9] (48 h, 0.05%o, Table 5, read-out: Activity (mortality class), Spodoptera L.). For the same compound, the LD50 in data set [10] was found to be 1600 mg/kg.
For the compound `CCOP(=S)(OCC)Oc1nc(-c2ccccc2)nn1C` [M 8172, 0,0-diethyl-0-[1-methyl-3-phenyl-1,2,4-triazolyl(5)]-thiophosphate, reference compound], the toxicity in words result in [11] is “low toxicity towards mammals”. For the same compound, the mortality at 0.02 ppm in [1] (setting [13]) was 0%; in [1] (24 h, read-out: Activity (mortality class), Culex P. (larvae)) it was 0 to 9%. Further, the mortality at 0.2 ppm in data set [1] (setting [14]) is 100%. Also, in [12], the “Activity (mortality class), Locusta M.” value is “+ (70-99% of mort.)”. The mortality at 0.001 % in [2] (setting [15]) was 96%; in data set [2] (24 h, read-out: Activity (mortality class), Tetranychus U. (adults)), 70 to 99%; in data set [8], 0 to 9%. Further, in data set [2] (setting [16]), the mortality at 0.0005 % amounted to 76%. Besides, the figures for the “% ge of activity, Blatta o.” value in data set [4] (0,01 g/m^2) and in data set [4] (0,1 g/m^2) were 20% and 100%, respectively. In addition, in data set [4] (setting [17]), the mortality at 0.01 g/m2 was 10 to 69%. Also, the “% ge of activity, Hylemyia b.” value in [5] (2 ppm) was determined as 48%; in [5] (10 ppm), 98%. Also, the “% ge of activity, Meloidogyne i.” value in data set [6] came to 40%. The mortality at 0.01 % worked out at 92% in [7] (setting [18]) and 100% in data set [9] (setting [20]). Also, the mortality at 0.005 % in data set [7] (setting [19]) is 10%; in data set [7] (48 h, read-out: Activity (mortality class), Leptinotarsa D.) it was 10 to 69%; in data set [9] (setting [21]), 15%; in data set [9] (48 h, read-out: Activity (mortality class), Spodoptera L.), 10 to 69%.
